The test system of experiment [1] is phosphorylation of Chk1 (Ser 345) in HT29 colon adenocarcinoma cells. In words: pCHK1 cellular assay. Format: cell-based. Conditions: Homo sapiens. Put shortly:
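HT29 cells plated ≥20 h, then compound (1 nM–30 μM final) with hydroxyurea (3 mM final) added together for 4 h at 37 °C. After MeOH/Triton fixation-permeabilisation, anti-pChk1 immunostaining plus nuclear stain; nuclear pChk1 imaged by confocal high content reader, reported as % positive nuclei.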

The target in a further experiment is T1, ATR/ATRIP (Homo sapiens, UniProt Q13535).
T1 construct: human ATR, full length, GenBank ID: NM_001184.3; p53: Sf21 insect cells
T1 sequence (Q13535 whole entry): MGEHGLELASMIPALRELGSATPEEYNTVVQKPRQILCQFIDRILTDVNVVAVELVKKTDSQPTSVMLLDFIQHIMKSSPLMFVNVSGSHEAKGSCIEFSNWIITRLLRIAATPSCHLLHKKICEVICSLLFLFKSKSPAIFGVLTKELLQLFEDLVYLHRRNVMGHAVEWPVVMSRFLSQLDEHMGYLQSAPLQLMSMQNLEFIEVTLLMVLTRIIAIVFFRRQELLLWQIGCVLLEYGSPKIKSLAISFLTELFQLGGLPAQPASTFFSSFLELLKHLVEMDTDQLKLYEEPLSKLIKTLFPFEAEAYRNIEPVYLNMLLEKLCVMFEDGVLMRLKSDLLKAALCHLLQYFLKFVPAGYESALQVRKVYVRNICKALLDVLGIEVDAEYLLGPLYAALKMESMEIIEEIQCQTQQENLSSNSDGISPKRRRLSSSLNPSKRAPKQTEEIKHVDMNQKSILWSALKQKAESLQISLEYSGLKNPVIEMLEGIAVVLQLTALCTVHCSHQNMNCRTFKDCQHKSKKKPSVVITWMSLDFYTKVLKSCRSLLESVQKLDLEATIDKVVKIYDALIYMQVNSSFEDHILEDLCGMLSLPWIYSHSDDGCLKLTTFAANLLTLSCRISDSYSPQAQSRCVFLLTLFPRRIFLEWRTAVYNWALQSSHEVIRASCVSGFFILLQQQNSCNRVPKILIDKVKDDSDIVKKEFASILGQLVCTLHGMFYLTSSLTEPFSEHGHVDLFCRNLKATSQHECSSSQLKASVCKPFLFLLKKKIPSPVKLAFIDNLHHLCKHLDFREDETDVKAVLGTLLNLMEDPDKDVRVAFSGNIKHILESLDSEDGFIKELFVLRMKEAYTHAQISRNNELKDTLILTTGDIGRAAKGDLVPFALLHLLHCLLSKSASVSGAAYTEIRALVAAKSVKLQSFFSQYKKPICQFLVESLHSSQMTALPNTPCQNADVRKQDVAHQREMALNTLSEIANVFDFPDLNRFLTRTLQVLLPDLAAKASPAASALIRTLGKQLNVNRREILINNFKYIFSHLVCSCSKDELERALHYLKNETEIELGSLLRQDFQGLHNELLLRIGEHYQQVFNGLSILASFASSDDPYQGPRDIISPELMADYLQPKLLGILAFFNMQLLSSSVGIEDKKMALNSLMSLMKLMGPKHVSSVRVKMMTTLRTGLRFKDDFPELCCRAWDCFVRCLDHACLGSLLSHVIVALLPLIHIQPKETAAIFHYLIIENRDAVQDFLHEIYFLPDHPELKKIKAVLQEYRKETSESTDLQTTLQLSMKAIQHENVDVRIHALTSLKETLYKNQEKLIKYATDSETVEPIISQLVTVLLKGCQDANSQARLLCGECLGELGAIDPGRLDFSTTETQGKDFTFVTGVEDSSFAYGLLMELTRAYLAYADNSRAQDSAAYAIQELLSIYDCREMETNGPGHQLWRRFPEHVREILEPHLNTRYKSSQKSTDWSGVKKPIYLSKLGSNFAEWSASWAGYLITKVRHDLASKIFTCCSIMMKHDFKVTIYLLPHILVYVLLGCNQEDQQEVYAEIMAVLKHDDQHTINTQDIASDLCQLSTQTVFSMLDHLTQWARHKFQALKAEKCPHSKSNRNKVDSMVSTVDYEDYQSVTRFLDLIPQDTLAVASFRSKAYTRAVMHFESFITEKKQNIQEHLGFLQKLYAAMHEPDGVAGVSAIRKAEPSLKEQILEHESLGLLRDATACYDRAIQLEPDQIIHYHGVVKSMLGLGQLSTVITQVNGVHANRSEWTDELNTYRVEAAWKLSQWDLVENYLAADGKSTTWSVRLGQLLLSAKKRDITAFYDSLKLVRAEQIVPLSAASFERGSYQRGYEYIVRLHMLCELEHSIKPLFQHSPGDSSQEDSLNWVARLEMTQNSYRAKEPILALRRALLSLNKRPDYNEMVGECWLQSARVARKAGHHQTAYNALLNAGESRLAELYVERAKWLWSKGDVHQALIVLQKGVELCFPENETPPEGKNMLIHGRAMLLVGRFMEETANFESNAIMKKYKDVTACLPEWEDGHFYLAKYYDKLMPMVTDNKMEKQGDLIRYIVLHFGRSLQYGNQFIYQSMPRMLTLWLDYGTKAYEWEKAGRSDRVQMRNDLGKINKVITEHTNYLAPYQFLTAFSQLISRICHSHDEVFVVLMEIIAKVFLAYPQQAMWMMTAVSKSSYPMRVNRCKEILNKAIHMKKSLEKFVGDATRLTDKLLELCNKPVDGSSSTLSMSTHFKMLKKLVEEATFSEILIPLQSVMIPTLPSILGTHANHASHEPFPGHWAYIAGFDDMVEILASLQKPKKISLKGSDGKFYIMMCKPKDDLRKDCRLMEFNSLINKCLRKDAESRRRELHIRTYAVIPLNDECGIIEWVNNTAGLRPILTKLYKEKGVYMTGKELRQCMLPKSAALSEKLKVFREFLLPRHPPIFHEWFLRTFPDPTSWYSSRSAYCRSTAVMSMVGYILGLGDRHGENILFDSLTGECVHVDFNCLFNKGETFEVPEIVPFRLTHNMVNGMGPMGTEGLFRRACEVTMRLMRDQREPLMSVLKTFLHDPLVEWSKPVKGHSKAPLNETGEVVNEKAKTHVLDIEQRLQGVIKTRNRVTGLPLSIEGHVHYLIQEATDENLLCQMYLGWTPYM
T1 sequence (Q8WXE1 whole entry partner): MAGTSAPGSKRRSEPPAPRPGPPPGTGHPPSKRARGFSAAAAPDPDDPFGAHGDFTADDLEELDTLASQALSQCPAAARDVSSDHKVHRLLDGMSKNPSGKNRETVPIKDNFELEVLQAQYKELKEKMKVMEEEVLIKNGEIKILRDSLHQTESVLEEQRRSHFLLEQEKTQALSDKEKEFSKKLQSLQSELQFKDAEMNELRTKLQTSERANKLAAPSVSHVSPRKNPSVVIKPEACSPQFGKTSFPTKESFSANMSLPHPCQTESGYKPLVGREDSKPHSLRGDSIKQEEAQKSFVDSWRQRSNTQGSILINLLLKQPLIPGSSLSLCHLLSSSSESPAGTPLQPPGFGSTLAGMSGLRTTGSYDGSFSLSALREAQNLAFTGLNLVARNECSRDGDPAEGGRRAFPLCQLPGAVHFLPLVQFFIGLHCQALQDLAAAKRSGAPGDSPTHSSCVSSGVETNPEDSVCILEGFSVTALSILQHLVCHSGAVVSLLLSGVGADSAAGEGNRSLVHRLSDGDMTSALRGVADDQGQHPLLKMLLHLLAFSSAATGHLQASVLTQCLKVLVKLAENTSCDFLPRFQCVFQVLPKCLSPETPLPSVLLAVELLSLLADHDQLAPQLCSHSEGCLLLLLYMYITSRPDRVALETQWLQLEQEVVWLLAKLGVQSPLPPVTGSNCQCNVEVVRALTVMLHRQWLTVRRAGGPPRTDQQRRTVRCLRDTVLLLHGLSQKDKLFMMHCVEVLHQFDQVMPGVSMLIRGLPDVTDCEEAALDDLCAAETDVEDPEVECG
In words: ATR/ATRIP kinase assay (TR-FRET, p53 phosphorylation). Format: biochemical. Conditions: Table 1, class symbols; read-out: ATR-ATRIP IC50.

Setting [2] is: HT-29, Table 1, class symbols, hydroxyurea.

Regarding `CNc1cnc2[nH]ccc2c1-c1nc2c(c(C(C)(C)S(C)(=O)=O)n1)OC[C@@H]1COC[C@@H](C)N21` [A1, {4-[(S)-1-(1-Methanesulfonyl-1-methyl-ethyl)-5-(R)-methyl-5,6,8a,9-tetrahydro-8H-7,10-dioxa-2,4,4b-triaza-phenanthren-3-yl]-1H-pyrrolo[2,3-b]pyridin-5-yl}-methyl-amine], the concentration for half-maximal inhibition (IC50) (usually the concentration at which inhibition is half-maximal) is under 10 nM in experiment [1] (setting [2]); 6.2 nM in experiment [1] (HT-29, Table 3, hydroxyurea); under 1 nM on ATR/ATRIP.

With `C[C@@H]1COC[C@H]2COc3c(nc(-c4ccnc5[nH]ccc45)nc3C(C)(C)S(C)(=O)=O)N21` [A13, (6R,8aS)-1-(1-Methanesulfonyl-1-methyl-ethyl)-5-methyl-3-(1H-pyrrolo[2,3-b]pyridin-4-yl)-5,6,8a,9-tetrahydro-8H-7,10-dioxa-2,4,4b-triaza-phenanthrene], the concentration for half-maximal inhibition (IC50) in experiment [1] (setting [2]) is 10 to 100 nM; in experiment [1] (HT-29, Table 3, hydroxyurea), 20 nM; on ATR/ATRIP it was under 1 nM.

For `C[C@@H]1COC[C@H]2COc3c(nc(-c4c(N)cnc5[nH]ccc45)nc3C(C)(C)S(C)(=O)=O)N21` [A20, 4-[(4bR,8S)-1-(1-Methanesulfonyl-1-methyl-ethyl)-5-methyl-5,6,8a,9-tetrahydro-8H-7,10-dioxa-2,4,4b-triaza-phenanthren-3-yl]-1H-pyrrolo[2,3-b]pyridin-5-ylamine], the IC50 was 10 to 100 nM in experiment [1] (setting [2]); 36 nM in experiment [1] (HT-29, Table 3, hydroxyurea); under 1 nM at ATR/ATRIP.

The values are drawn from patent publication US10570149B2, “Tricyclic heterocylic derivatives” (MERCK PATENT GMBH, priority 2016, dated 2020).
